Experiment in all cases: Competitive isoTOP-ABPP in situ (fragment-treated cells)
Format in all cases: cell-based

In assay [1] the target is T1, cysteines in MDA-MB-231 and Ramos cells (Homo sapiens, UniProt A6NDU8).
T1 sequence (A6NDU8 1-294): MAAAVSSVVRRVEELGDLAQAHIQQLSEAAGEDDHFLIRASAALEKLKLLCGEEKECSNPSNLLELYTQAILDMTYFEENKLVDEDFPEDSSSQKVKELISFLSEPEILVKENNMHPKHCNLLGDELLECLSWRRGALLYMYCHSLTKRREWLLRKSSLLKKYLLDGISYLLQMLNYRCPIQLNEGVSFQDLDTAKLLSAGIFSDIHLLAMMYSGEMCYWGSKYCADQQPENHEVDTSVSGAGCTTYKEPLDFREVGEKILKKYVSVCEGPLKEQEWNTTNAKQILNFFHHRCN
The settings on record: for isoTOP-ABPP ratio A6NDU8_C179: 200 μM, insitu, 231.

In assay [2] the target is cysteines in MDA-MB-231 and Ramos cells (Homo sapiens, UniProt P15121). The settings on record: for isoTOP-ABPP ratio P15121_C299: 200 μM, insitu, 231.
The target of assay [3] is T2, cysteines in MDA-MB-231 and Ramos cells (Homo sapiens, UniProt P22307).
T2 sequence (P22307 1-547): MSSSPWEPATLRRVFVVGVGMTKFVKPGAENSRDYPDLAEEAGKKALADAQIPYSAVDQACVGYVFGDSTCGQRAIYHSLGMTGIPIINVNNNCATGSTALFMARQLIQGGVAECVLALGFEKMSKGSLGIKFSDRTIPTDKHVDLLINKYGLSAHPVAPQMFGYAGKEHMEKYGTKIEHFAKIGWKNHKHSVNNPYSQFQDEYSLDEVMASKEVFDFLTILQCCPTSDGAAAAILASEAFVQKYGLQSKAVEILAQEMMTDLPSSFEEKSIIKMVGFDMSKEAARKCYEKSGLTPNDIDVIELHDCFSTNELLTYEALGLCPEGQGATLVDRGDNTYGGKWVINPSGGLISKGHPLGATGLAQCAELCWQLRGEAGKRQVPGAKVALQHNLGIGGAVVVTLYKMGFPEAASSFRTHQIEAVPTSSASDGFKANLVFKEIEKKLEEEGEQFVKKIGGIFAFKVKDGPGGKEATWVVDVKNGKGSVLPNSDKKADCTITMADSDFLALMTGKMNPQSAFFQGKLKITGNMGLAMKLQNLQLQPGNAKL

Assay [4] concerns the target T3, cysteines in MDA-MB-231 and Ramos cells (Homo sapiens, UniProt P23919).
T3 sequence (P23919 1-212): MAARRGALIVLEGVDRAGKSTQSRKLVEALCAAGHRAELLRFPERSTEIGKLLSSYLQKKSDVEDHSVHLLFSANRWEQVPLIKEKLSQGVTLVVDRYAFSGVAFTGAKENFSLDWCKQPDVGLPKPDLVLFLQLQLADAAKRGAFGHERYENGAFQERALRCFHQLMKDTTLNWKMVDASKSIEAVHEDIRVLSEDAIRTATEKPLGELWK
The settings on record: for isoTOP-ABPP ratio, cysteine P23919_C117: 200 μM, insitu, 231.

Assay [5] concerns the target T4, cysteines in MDA-MB-231 and Ramos cells (Homo sapiens, UniProt P31943).
T4 sequence (P31943 1-449): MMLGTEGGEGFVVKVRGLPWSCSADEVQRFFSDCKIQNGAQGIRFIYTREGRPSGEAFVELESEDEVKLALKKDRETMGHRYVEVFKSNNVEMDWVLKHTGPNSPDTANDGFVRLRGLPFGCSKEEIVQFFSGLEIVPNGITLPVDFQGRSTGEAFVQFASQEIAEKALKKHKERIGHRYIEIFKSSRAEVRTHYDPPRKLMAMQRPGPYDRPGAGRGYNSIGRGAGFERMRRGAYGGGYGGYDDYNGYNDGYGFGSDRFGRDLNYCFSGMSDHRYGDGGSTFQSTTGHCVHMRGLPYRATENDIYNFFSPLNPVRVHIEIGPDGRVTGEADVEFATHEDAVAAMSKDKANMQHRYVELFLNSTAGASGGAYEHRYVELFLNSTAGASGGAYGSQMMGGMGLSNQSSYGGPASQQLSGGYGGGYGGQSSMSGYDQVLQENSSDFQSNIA
The settings on record: for isoTOP-ABPP ratio P31943_C267: 200 μM, insitu.

Assay [6] addresses cysteines in MDA-MB-231 and Ramos cells (Homo sapiens, UniProt P62888). The settings on record: for isoTOP-ABPP ratio P62888_C92: 200 μM, insitu.
The target in assay [7] is T5, cysteines in MDA-MB-231 and Ramos cells (Homo sapiens, UniProt P78417).
T5 sequence (P78417 1-241): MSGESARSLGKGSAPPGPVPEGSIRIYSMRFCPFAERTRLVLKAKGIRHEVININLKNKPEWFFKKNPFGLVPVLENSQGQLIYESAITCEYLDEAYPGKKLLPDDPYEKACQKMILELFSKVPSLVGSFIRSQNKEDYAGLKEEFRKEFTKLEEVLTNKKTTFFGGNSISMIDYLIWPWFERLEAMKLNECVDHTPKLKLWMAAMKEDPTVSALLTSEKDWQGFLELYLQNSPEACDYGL
The settings on record: for isoTOP-ABPP ratio P78417_C32: 200 μM, insitu.

Assay [8] concerns the target cysteines in MDA-MB-231 and Ramos cells (Homo sapiens, UniProt Q02252). The settings on record: for isoTOP-ABPP ratio Q02252_C317: 200 μM, insitu.
Assay [9] deals with cysteines in MDA-MB-231 and Ramos cells (Homo sapiens, UniProt Q9BXW7). The settings on record: for isoTOP-ABPP ratio Q9BXW7_C392: 200 μM, insitu, 231.
In assay [10] the target is T6, cysteines in MDA-MB-231 and Ramos cells (Homo sapiens, UniProt O95336).
T6 sequence (O95336 1-258): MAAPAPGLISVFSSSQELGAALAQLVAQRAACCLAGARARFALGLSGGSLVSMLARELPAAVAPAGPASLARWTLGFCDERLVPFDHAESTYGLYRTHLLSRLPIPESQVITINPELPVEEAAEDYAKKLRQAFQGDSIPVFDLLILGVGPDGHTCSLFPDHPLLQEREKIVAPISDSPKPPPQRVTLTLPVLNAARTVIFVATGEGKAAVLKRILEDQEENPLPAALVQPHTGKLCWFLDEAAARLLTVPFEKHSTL
The settings on record: 200 μM, insitu, 231.

Each structure is given as a SMILES string.

Chain of cysteines in MDA-MB-231 and Ramos cells (Homo sapiens, UniProt Q9BXW7) (Q9BXW7 24-423): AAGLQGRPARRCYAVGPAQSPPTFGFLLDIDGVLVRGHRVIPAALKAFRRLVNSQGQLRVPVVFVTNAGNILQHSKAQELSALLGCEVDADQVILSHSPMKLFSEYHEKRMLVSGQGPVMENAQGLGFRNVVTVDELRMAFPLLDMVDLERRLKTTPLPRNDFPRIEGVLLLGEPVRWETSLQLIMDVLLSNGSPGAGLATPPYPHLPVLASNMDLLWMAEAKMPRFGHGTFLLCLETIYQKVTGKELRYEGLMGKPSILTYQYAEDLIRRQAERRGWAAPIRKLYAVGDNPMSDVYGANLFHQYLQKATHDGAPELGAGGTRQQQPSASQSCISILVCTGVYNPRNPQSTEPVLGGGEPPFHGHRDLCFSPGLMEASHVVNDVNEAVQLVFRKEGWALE
Chain of cysteines in MDA-MB-231 and Ramos cells (Homo sapiens, UniProt Q02252) (Q02252 34-535): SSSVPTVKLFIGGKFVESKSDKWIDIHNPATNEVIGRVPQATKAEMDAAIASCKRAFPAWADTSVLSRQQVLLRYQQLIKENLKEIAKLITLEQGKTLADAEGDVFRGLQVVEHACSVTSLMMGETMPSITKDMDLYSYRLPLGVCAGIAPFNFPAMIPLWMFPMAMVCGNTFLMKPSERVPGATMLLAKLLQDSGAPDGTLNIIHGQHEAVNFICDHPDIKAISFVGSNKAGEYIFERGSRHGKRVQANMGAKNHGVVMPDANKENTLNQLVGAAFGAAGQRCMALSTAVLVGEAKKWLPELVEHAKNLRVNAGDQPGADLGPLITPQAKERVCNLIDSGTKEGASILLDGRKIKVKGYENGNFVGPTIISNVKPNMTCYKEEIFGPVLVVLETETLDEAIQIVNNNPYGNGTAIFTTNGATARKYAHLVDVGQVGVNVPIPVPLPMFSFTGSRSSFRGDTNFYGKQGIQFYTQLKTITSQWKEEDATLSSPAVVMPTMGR

Take `COc1ccc(C2CC(c3cccs3)=NN2C(=O)CCl)cc1` (stereo not shown) [compound 4]: in [1] (100 μM in situ 231), the “isoTOP-ABPP reactivity A6NDU8_C179 C5orf51” value came to 3.0. Also, the “isoTOP-ABPP reactivity P15121_C299 AKR1B1” value in assay [2] (100 μM in situ 231) stood at 1.0. Also, in assay [3] (100 μM in situ 231), the “isoTOP-ABPP reactivity P22307_C71 SCP2” value is 2.7, the “isoTOP-ABPP reactivity P22307_C94 SCP2” value amounted to 20.0 and the “isoTOP-ABPP reactivity P22307_C307 SCP2” value amounted to 20.0. The “isoTOP-ABPP reactivity P23919_C163 DTYMK” value in assay [4] (100 μM in situ 231) came out at 0.4. Further, in [5] (100 μM in situ 231), the “isoTOP-ABPP reactivity P31943_C267 HNRNPH1” value turned out to be 6.0. Besides, the “isoTOP-ABPP reactivity P62888_C92 RPL30” value in [6] (100 μM in situ 231) was 2.7. Besides, the “isoTOP-ABPP reactivity P78417_C32 GSTO1” value in [7] (100 μM in situ 231) is recorded as 19.9. Also, the “isoTOP-ABPP reactivity Q02252_C317 ALDH6A1” value in [8] (100 μM in situ 231) stood at 14.4. Also, the “isoTOP-ABPP reactivity Q9BXW7_C392 CECR5” value in assay [9] (100 μM in situ 231) stood at 2.2.
As for `O=C(CCl)Nc1cccc2ncccc12` [compound 51], the “isoTOP-ABPP ratio P15121_C299” value in [2] stood at 0.9. Moreover, the “isoTOP-ABPP ratio P22307_C71” value in [3] (200 μM, insitu, 231) is recorded as 5.6. Also, the “isoTOP-ABPP ratio P31943_C267” value in assay [5] (231) was found to be 1.3. The “isoTOP-ABPP ratio P62888_C92” value in assay [6] (231) amounted to 0.9. Also, the “isoTOP-ABPP ratio Q9BXW7_C392” value in [9] was found to be 1.1.
Consider `CC1CCc2ccccc2N1C(=O)CCl` (stereo not shown) [compound 45], for which the “isoTOP-ABPP ratio A6NDU8_C179” value in assay [1] came to 20.0. Moreover, the “isoTOP-ABPP ratio P15121_C299” value in [2] is reported as 1.0. Moreover, in [3] (200 μM, insitu, 231), the “isoTOP-ABPP ratio P22307_C71” value is 16.8 and the “isoTOP-ABPP ratio P22307_C94” value is 20.0. The “isoTOP-ABPP ratio P31943_C267” value in assay [5] (231) came to 3.6. The “isoTOP-ABPP ratio P62888_C92” value in assay [6] (231) is given as 2.2. Further, the “isoTOP-ABPP ratio P78417_C32” value in assay [7] (231) is on record as 1.9. The “isoTOP-ABPP ratio Q02252_C317” value in [8] (231) was 2.6. Also, the “isoTOP-ABPP ratio Q9BXW7_C392” value in assay [9] worked out at 4.9.
As to `O=C(CCl)NC(=O)NC12CC3CC(CC(C3)C1)C2` [compound 12], the “isoTOP-ABPP ratio O95336_C32” value in assay [10] was 20.0. The “isoTOP-ABPP ratio P15121_C299” value in assay [2] is reported as 0.7. For the same compound, in assay [3] (200 μM, insitu, 231), the “isoTOP-ABPP ratio P22307_C71” value was 3.7; the “isoTOP-ABPP ratio, cysteine P22307_C94” value was found to be 20.0; the “isoTOP-ABPP ratio, cysteine P22307_C307” value worked out at 20.0. Also, the “isoTOP-ABPP ratio, cysteine P23919_C117” value in assay [4] was 0.2. Also, the “isoTOP-ABPP ratio P31943_C267” value in assay [5] (231) turned out to be 5.0. Moreover, the “isoTOP-ABPP ratio P62888_C92” value in assay [6] (231) was 1.1. Besides, the “isoTOP-ABPP ratio P78417_C32” value in assay [7] (231) stood at 20.0. Further, the “isoTOP-ABPP ratio Q02252_C317” value in [8] (231) is on record as 3.2. In [9], the “isoTOP-ABPP ratio Q9BXW7_C392” value is 5.1.
`O=C(CCl)N1CCN(S(=O)(=O)c2ccccc2F)CC1` [compound 10]: the “isoTOP-ABPP ratio A6NDU8_C179” value in assay [1] stood at 1.3. For the same compound, in assay [2], the “isoTOP-ABPP ratio P15121_C299” value was 20.0. Besides, the “isoTOP-ABPP ratio P22307_C71” value in assay [3] (200 μM, insitu, 231) is listed as 8.3. Also, the “isoTOP-ABPP ratio, cysteine P23919_C117” value in [4] was 0.4. Moreover, the “isoTOP-ABPP ratio P31943_C267” value in assay [5] (231) was found to be 4.8; in [5] (ramos) it was 2.5. The entries for the “isoTOP-ABPP ratio P62888_C92” value in assay [6] (231) and in assay [6] (ramos) were 1.3 and 4.5, respectively. Besides, the “isoTOP-ABPP ratio P78417_C32” value in [7] (231) and in assay [7] (ramos) was 20.0 in each case. Besides, the “isoTOP-ABPP ratio Q02252_C317” value in [8] (231) is listed as 1.5; in [8] (ramos) it was 0.7. Also, the “isoTOP-ABPP ratio Q9BXW7_C392” value in assay [9] is given as 20.0.

Values taken from US10670605B2, “Cysteine reactive probes and uses thereof” (The Scripps Research Institute, priority 2015, dated 2020).
